Results reported in patent US20070190539A1, “Human MLR single nucleotide polymorphisms associated with dose-dependent congestive heart failure and methods of use thereof” (Bristol-Myers Squibb Company, priority 2005, published 2007).

Assay: Phase II clinical trials CV168-006 and CV168-008: diagnosis of congestive heart failure in patients treated with compound A
Type: in vivo, human
Experimental: Genomic DNA samples from patients enrolled in two Bristol-Myers Squibb Company Phase II clinical trials CV168-006 and CV168-008 trials were genotyped for 1 SNP identified in the human mineralocorticoid receptor gene (see Example 1) and evaluated for association with congestive heart failure.
498 subjects enrolled in the CV168-006 trial and 232 subjects from the CV168-008 trial were analyzed in this study. All analyses were based on data collected up to 24 weeks, which was the duration of the short-term phase of the trials. DNA was extracted from frozen blood by a third-party (Genaissance Inc, North Carolina) using a salting-out method (Gentra Systems). All subjects gave written informed consent.
(§1) At the time of this analysis four individuals were diagnosed as having developed congestive heart failure. All four were in the CV168-006 trial; three were being treated with 10 mg of compound A and one with 20 mg of compound A. All SNPs that were analyzed above were also tested for association with CHF using contingency tables.
Sample. Investigators in the BMS clinical trials diagnosed dose-dependent congestive heart failure in some subjects.
Genomic DNA samples from patients enrolled in two Bristol-Myers Squibb Company Phase II clinical trials CV168-006 and CV168-008 trials were genotyped for 1 SNP identified in the human PPAR-gamma gene (see Example 7) and evaluated for association with congestive heart failure.
as §1, with “CV 168-006” for “CV168-006”
Genomic DNA samples from patients enrolled in two Bristol-Myers Squibb Company Phase II clinical trials CV168-006 and CV168-008 trials were genotyped for 1 SNP identified in the human Adiponectin gene (see Example 13) and evaluated for association with congestive heart failure.

COc1ccc(OC(=O)N(CC(=O)O)Cc2ccc(OCCc3nc(-c4ccccc4)oc3C)cc2)cc1 [compound A, N-[(4-methoxyphenoxy)carbonyl]-N-[[4-[2-(5-methyl-2-phenyl-4-oxazolyl)ethoxy]phenyl]methyl]glycine]
individuals who developed congestive heart failure while treated with 10 mg (CV168-006 trial, 10 mg of compound A, data up to 24 weeks): three
individuals who developed congestive heart failure while treated with 20 mg (CV168-006 trial, 20 mg of compound A, data up to 24 weeks): one
dose dependence of congestive heart failure (CHF) (Phase II trials, patients, high doses = 10 and 20 mg arms): observed only at high doses
individuals diagnosed as having developed congestive heart failure (all subjects analysed (498 in CV168-006, 232 in CV168-008), data up to 24 weeks, all four cases in the CV168-006 trial): four
